Experimental data as given in patent US8314253B2, “Bridged tetrahydronaphthalene derivatives” (Actelion Pharmaceuticals Ltd., priority 2008, dated 2012).

Key:
isolated mouse hearts = experiment: Effect on isolated hearts according to the Langendorff method (Lgdff)
Experimental: The compounds were tested for their potential to reduce blood pressure and their effect on the contractility of the heart muscle. EC50 values on isolated mouse hearts were determined according to Literature (Doring H J., The isolated perfused heart according to Langendorff technique—function—application, Physiol. Bohemoslov. 1990, 39(6), 481-504; Kligfield P, Homer H, Brachfeld N., A model of graded ischemia in the isolated perfused rat heart, J. Appl. Physiol. 1976 June, 40(6), 1004-8).
15 example compounds have been measured using the procedure described above for the Langendorff experiment.

[1] = system: human Cav3.1 Cav3.2 or Cav3.3 channel; experiment: In vitro assay T channel (FLIPR, Ca2+-induced fluorescence); assay type: cell-based; conditions: HEK293 cells expressing human Cav3.1 Cav3.2 or Cav3.3; 10 mM Ca2+; determined up to 10 μM; read-out: T channel antagonistic activity IC50
Experimental: Human embryonic kidney (HEK293) cells expressing the human Cav3.1 Cav3.2 or Cav3.3 channel, respectively, are grown in culture medium (DMEM containing 10% heat-inactivated fetal calf serum (FCS), 100 U/ml penicillin, 100 μg/ml streptomycin and 1 mg/ml G418). The cells are seeded at 20.000 cells/well into 384-well black clear bottom sterile plates (poly-L-lysine-coated, Becton Dickinson). The seeded plates are incubated overnight at 37° C. in 5% CO2. The Ca^2+ solution is prepared as 100 mM stock solution in 100 mM tetraethylammoniumchloride (TEA-chloride), 50 mM HEPES, 2.5 mM CaCl2, 5 mM KCl, 1 mM MgCl2, adjusted to pH 7.2 with TEA-hydroxide, for use in the assay at a final concentration of 10 mM. […] Fluorescence is measured for each well at 2 second intervals for 8 minutes, and the area under the curve of each fluorescence peak is compared to the area of the fluorescence peak induced by 10 mM Ca^2+ with vehicle in place of antagonist.

| EC50 (isolated mouse hearts) | IC50 [1] | Structure (SMILES) |
| --- | --- | --- |
| 30 nM | 1400 nM | CC(C)C(=O)O[C@@]1(CCN(C)CCCc2nc3ccccc3[nH]2)C[C@H]2CC[C@@H]1c1cc(F)c(F)cc12 (relative stereo) [Example 9A, rac-Isobutyric acid (1R*,8R*,9R*)-9-(2-{[3-(1H-benzoimidazol-2-yl)-propyl]-methyl-amino}-ethyl)-4,5-difluoro-tricyclo[6.2.2.0^2,7]dodeca-2,4,6-trien-9-yl ester] |
|  | > 10000 nM | CN(CCCc1nc2ccccc2[nH]1)CC[C@@]1(O)C[C@H]2CC[C@@H]1c1ccccc12 (relative stereo) [Example 5, rac-(1R*,8R*,9S*)-9-(2-{[3-(1H-Benzoimidazol-2-yl)-propyl]-methyl-amino}-ethyl)-tricyclo[6.2.2.0^2,7]dodeca-2,4,6-trien-9-ol] |
| 42 nM | 2070 nM | CC(C)C(=O)O[C@@]1(CCN(C)CCCc2nc3ccccc3[nH]2)C[C@H]2CC[C@@H]1c1ccccc12 (relative stereo) [Example 1B, rac-Isobutyric acid (1R*,8R*,9R*)-9-(2-{[3-(1H-benzoimidazol-2-yl)-propyl]-methyl-amino}-ethyl)-tricyclo[6.2.2.0^2,7]dodeca-2,4,6-trien-9-yl ester] |
|  | 2850 nM | CN(CCCc1nc2ccccc2[nH]1)CC[C@]1(O)C[C@H]2CC[C@@H]1c1ccccc12 (relative stereo) [Example 1, rac-(1R*,8R*,9R*)-9-(2-{[3-(1H-Benzoimidazol-2-yl)-propyl]-methyl-amino}-ethyl)-tricyclo[6.2.2.0^2,7]dodeca-2,4,6-trien-9-ol] |
|  | 1790 nM | CC(C)C(=O)OC1(CCN(C)CCCc2nc3ccccc3[nH]2)CC2CCC1c1ccccc12 [Example 2A, Isobutyric acid (1S,8S,9S)-9-(2-{[3-(1H-benzoimidazol-2-yl)-propyl]-methyl-amino}-ethyl)-tricyclo[6.2.2.0^2,7]dodeca-2,4,6-trien-9-yl ester or isobutyric acid (1R,8R,9R)-9-(2-{[3-(1H-benzoimidazol-2-yl)-propyl]-methyl-amino}-ethyl)-tricyclo[6.2.2.0^2,7]dodeca-2,4,6-trien-9-yl ester] |
|  | 521 nM | CN(CCCc1nc2ccccc2[nH]1)CCC1(O)CC2CCCC1c1ccccc12 (single isomer, unassigned) [Example 11, (1S,8S,12S)-12-(2-{[3-(1H-Benzoimidazol-2-yl)-propyl]-methyl-amino}-ethyl)-tricyclo[6.3.2.0^2,7]trideca-2,4,6-trien-12-ol or (1R,8R,12R)-12-(2-{[3-(1H-benzoimidazol-2-yl)-propyl]-methyl-amino}-ethyl)-tricyclo[6.3.2.0^2,7]trideca-2,4,6-trien-12-ol] |
|  | 1360 nM | O[C@@]1(CCN2CCC(c3nc4ccccc4[nH]3)CC2)C[C@H]2CC[C@@H]1c1ccccc12 (relative stereo) [Example 6, rac-(1R*,8R*,9R*)-9-{2-[4-(1H-Benzoimidazol-2-yl)-piperidin-1-yl]-ethyl}-tricyclo[6.2.2.0^2,7]dodeca-2,4,6-trien-9-ol] |
|  | 1220 nM | COc1cccc2[nH]c(CCCN(C)CCC3(O)CC4CCCC3c3ccccc34)nc12 (single isomer, unassigned) [Example 13, (1S,8S,12S)-12-(2-{[3-(4-Methoxy-1H-benzoimidazol-2-yl)-propyl]-methyl-amino}-ethyl)-tricyclo[6.3.2.0^2,7]trideca-2,4,6-trien-12-ol or (1R,8R,12R)-12-(2-{[3-(4-methoxy-1H-benzoimidazol-2-yl)-propyl]-methyl-amino}-ethyl)-tricyclo[6.3.2.0^2,7]trideca-2,4,6-trien-12-ol] |
| 22 nM | 1050 nM | CC(C)C(=O)OC1(CCN(C)CCCc2nc3ccccc3[nH]2)CC2CCCC1c1ccccc12 [Example 11A, Isobutyric acid (1S,8S,12S)-12-(2-{[3-(1H-Benzoimidazol-2-yl)-propyl]-methyl-amino}-ethyl)-tricyclo[6.3.2.0^2,7]trideca-2,4,6-trien-12-yl ester or isobutyric acid (1R,8R,12R)-12-(2-{[3-(1H-benzoimidazol-2-yl)-propyl]-methyl-amino}-ethyl)-tricyclo[6.3.2.0^2,7]trideca-2,4,6-trien-12-yl ester] |
| 6 nM | 653 nM | COc1cccc2[nH]c(CCCN(C)CC[C@@]3(OC(=O)CC(F)(F)F)C[C@@H]4CCC[C@H]3c3ccccc34)nc12 [Example 13B, 3,3,3-Trifluoro-propionic acid (1S,8S,12S)-12-(2-{[3-(4-methoxy-1H-benzoimidazol-2-yl)-propyl]-methyl-amino}-ethyl)-tricyclo[6.3.2.02,7]trideca-2,4,6-trien-12-yl ester or 3,3,3-trifluoro-propionic acid (1R,8R,12R)-12-(2-{[3-(4-methoxy-1H-benzoimidazol-2-yl)-propyl]-methyl-amino}-ethyl)-tricyclo[6.3.2.02,7]trideca-2,4,6-trien-12-yl ester] |
|  | 1850 nM | CN(CCCc1nc2ccccc2[nH]1)CC[C@]1(O)C[C@H]2CC[C@@H]1c1cc(F)c(F)cc12 (relative stereo) [Example 9, rac-(1R*,8R*,9R*)-9-(2-{[3-(1H-Benzoimidazol-2-yl)-propyl]-methyl-amino}-ethyl)-4,5-difluoro-tricyclo[6.2.2.0^2,7]dodeca-2,4,6-trien-9-ol] |
|  | 2250 nM | CN(CCCc1nc2ccccc2[nH]1)CCC1(O)CC2CCC1c1ccccc12 (single isomer, unassigned) [Example 3, (1S,8S,9S)-9-(2-{[3-(1H-Benzoimidazol-2-yl)-propyl]-methyl-amino}-ethyl)-tricyclo[6.2.2.0^2,7]dodeca-2,4,6-trien-9-ol or (1R,8R,9R)-9-(2-{[3-(1H-benzoimidazol-2-yl)-propyl]-methyl-amino}-ethyl)-tricyclo[6.2.2.0^2,7]dodeca-2,4,6-trien-9-ol] |
|  | 751 nM | CC(C)C(=O)O[C@@]1(CCN2CCC(c3nc4ccccc4[nH]3)CC2)C[C@H]2CC[C@@H]1c1ccccc12 (relative stereo) [Example 6A, rac-Isobutyric acid (1R*,8R*,9R*)-9-{2-[4-(1H-benzoimidazol-2-yl)-piperidin-1-yl]-ethyl}-tricyclo[6.2.2.0^2,7]dodeca-2,4,6-trien-9-yl ester] |
|  | 191 nM | COc1ccc(C)c2[nH]c(CCCN(C)CCC3(OC(=O)C(C)C)CC4CCCC3c3ccccc34)nc12 [Example 14A, Isobutyric acid (1S,8S,12S)-12-(2-{[3-(4-Methoxy-7-methyl-1H-benzoimidazol-2-yl)-propyl]-methyl-amino}-ethyl)-tricyclo[6.3.2.0^2,7]trideca-2,4,6-trien-12-yl ester or isobutyric acid (1R,8R,12R)-12-(2-{[3-(4-methoxy-7-methyl-1H-benzoimidazol-2-yl)-propyl]-methyl-amino}-ethyl)-tricyclo[6.3.2.0^2,7]trideca-2,4,6-trien-12-yl ester] |

| Structure (SMILES) | EC50 (isolated mouse hearts) | IC50 [1] |
| --- | --- | --- |
| CC(C)C(=O)O[C@@]1(CCN2CCC(c3ccccc3)(c3nc4ccccc4[nH]3)CC2)C[C@H]2CC[C@@H]1c1ccccc12 (relative stereo) [Example 8A, rac-Isobutyric acid (1R*,8R*,9R*)-9-{2-[4-(1H-benzoimidazol-2-yl)-4-phenyl-piperidin-1-yl]-ethyl}-tricyclo[6.2.2.0^2,7]dodeca-2,4,6-trien-9-yl ester] |  | 6100 nM |
